From US20130072459A1, “PHARMACEUTICAL COMPOSITION FOR THE PREVENTION OR THE TREATMENT OF NON-ALCOHOLIC FATTY LIVER DISEASE AND THE METHOD FOR PREVENTION OR TREATMENT OF NON-ALCOHOLIC FATTY LIVER DISEASE USING THE SAME” (priority 2010, published 2013)

Key:
[1] = system: HepG2 cells; test: Free fatty acid-induced intracellular fat accumulation, Nile Red staining; type: cell-based, human; conditions: 0.5 mM free fatty acid, 24 hours
Description: By a combined treatment of free fatty acid and a drug, inhibitory effects of individual drugs on intracellular fat accumulation were quantified using a triglyceride staining method. The human hepatoma cell line, HepG2 cells were cultured in a minimum essential medium (MEM) containing 10(v/v) % fetal bovine serum for 48 hours. […] For the negative control group, a MEM containing 1(v/v) % bovine serum albumin was treated with 0.1(v/v) % dimethyl sulfoxide with no addition of free fatty acid. After the culture was complete, the medium was removed and the cells were washed with a phosphate buffer. […] After the staining was complete, the supernatant was discarded and replaced with a phosphate buffer, followed by measurement of fluorescence intensities under conditions of a 488 nm excitation wavelength and a 550 nm emission wavelength. Then, in order to correct a deviation according to the cell count, a phosphate buffer containing 10 μM resazurin (Sigma) dissolved therein was added to the same well. Thereafter, before and after the reaction at 37° C. for 1 hour under light-shielded conditions, fluorescence intensities were measured using a fluorometer under conditions of a 535 nm excitation wavelength and a 580 nm emission wavelength, whereby an increase in fluorescence intensity due to resorufin reduced and formed by the intracellular mitochondrial activity was measured. Using the value of a fluorescence intensity of Nile Red corrected in terms of an increase in fluorescence intensity due to the reduction of resazurin, the experimental results were expressed as a percentage for the fat accumulation increased by a treatment with free fatty acid, as compared to the negative control group.

[2] = system: activated hepatic stellate cells; test: Expression of activity indicator proteins (TGFβ1, α-SMA) in activated hepatic stellate cells, Western blot; type: cell-based, rat (Wistar); conditions: for 1 ng/mL TGFβ1-induced protein expression inhibition rate, TGFβ1 / 1 ng/mL TGFβ1-induced protein expression inhibition rate, α-SMA: 100 μM compound, 7 days, N = 3, corrected by β-actin; for protein expression levels of TGFβ1 and α-SMA, result in words: hTGF-β1-activated rat hepatic stellate cells
Description: An inhibitory action of the compounds of the present invention on the activation of hepatic stellate cells was tested according to the following cell culture method. Male rats (Wistar rats), weighing 500 to 700 g, were anesthetized, followed by an abdominal incision, and cannulae were connected to hepatic portal veins, followed by sequential perfusion with a Hank's Balanced Salt Solution (HBSS) containing heparin and an HBSS containing type 1 collagenase. After the perfusion was complete, the liver was excised, ground with surgical scissors, and added to an HBSS containing type 1 collagenase, followed by shaking culture at 37° C. for 15 minutes. The completely ground liquid-state liver tissue was passed through gauze and centrifuged at 500 g for 10 minutes. The resulting mingled cell precipitate was washed with a phosphate buffer, followed by centrifugation at 100 g for 5 minutes, and the supernatant was collected. The supernatant was further centrifuged at 500 g for 10 minutes to obtain a precipitate to which a 9:1 (v/v) mixture of a Ficoll liquid (GE Healthcare) and a Percoll liquid (GE Healthcare) was added, followed by mixing. A phosphate buffer was gently placed on the mixed layer, followed by centrifugation at 1,400 g for 15 minutes. Then, the cell layer formed between the upper layer and the lower layer was recovered and washed once with a Dulbecco's Modified Eagle Medium (DMEM) containing 10(v/v) % fetal bovine serum. The resulting cells were added at a cell density of 3.1×10^5 cells/cm^2, the medium was exchanged with a fresh medium after 24 hours, and cultured for 7 days with exchange of the medium at intervals of 2 to 3 days. Then, the drugs were treated at specified concentrations in a medium containing 1 ng/ml of a human transforming growth factor (TGF) β1 and a medium containing no TGF β1. TGF β1 was dissolved in dimethylsulfoxide (DMSO) to a concentration 1.000-fold higher than the desired treatment concentration of the drug, 1.000-fold diluted in a medium to be a 1-fold (1×) volume, and then treated on cells. After 7 days of the drug treatment, the medium was harvested and washed with a phosphate buffer. A buffer containing a surfactant was added thereto and the cells were lysed. Then, proteins were quantified, electrophoresed on a 4-12% Bis-Tris gel (Invitrogen), and transferred to a nitrocellulose membrane. The transferred proteins were reacted with primary antibodies specific for α-smooth muscle actin (α-SMA) or TGFβ1, and then reacted with horse radish peroxidase-conjugated specific secondary antibodies. The expression level of the target protein was confirmed using a chemiluminescent liquid and corrected in terms of actin (β-actin) expression level (FIG. 9). The decrement of observed protein expression by 100 μM of individual compounds of the present invention was expressed as a percentage drug-induced decrement, based an increment of protein expression in the TGFβ1-treated positive control group relative to the negative control group to which only DMSO was added (Table 3).

[3] = system: high fat diet-induced simple steatosis; test: Non-alcoholic fatty liver-preventing effects on high fat diet-induced simple steatosis in mice (oral, 28 days); type: in vivo, C57BL/6 mice; conditions: for Triglyceride increase inhibition (%) relative to high fat diet-fed group / Triglyceride increment (%) relative to standard diet-fed group: 28 days, high fat diet
Description: 7-week old male C57BL/6 mice were stabilized and then divided into 9 groups (n=9) according to the body weight and blood glucose level. A standard diet-fed group and a high fat diet-fed group were orally administered a vehicle solution (0.5% MC (methylene cellulose)) of each diet once a day at a dose of 10 ml/kg, and the remaining groups were orally given once a day for 28 days a high fat diet in conjunction with tartrate of Compound 1 at doses of 30, 100 and 300 mg/kg, sitagliptin phosphate at doses of 100 and 300 mg/kg, and vildagliptin at doses of 100 mg/kg and 300 mg/kg, respectively, according to the designated groups. 24 hours after the final oral administration, animals were dissected and the excised liver was homogenized in a 5(v/v) % Triton-X solution to which a triglyceride working reagent was then added, followed by measurement of an absorbance at 540 nm to determine the content of triglyceride (Table 2). In addition, a portion of the excised liver was fixed in a 10(v/v) % formalin solution and then a tissue sample was prepared, followed by hematoxylin & eosin(HE) staining and photographing (FIG. 8).

[4] = system: TGF-β1; test: TGF-β1 mRNA expression in liver, CCl4-induced acute hepatic damage mouse model; type: in vivo, C57BL/6 mice; conditions: for TGF-β1 expression inhibition rate (% CCl4 control group) / TGF-β1 expression (normalized by actin): 3 days; for TGF-β1 expression (normalized by actin): CCl4 0.1 ml/kg i.p.
Description: In order to investigate inhibitory effects of compounds of the present invention on expression of TGF-β1 which is known to play a crucial role in a fibrosis process of hepatocytes in a CCl4-induced acute hepatic damage mouse model, the following experiment was carried out. 7-week old male C57BL/6 mice were stabilized and divided into 9 groups (n=7) according to the body weight, followed by intraperitoneal administration of CCl4 (0.1 ml/kg). The normal control group was administered an olive oil. The control group was orally administered a vehicle solution (0.5% MC) once a day at a dose of 10 ml/kg, at intervals of 24 hours for 3 days. The remaining groups were orally administered once a day tartrate of Compound 1 at doses of 30, 100 and 300 mg/kg, sitagliptin phosphate (prepared according to the method described in WO2004/085378 or WO2005/003135) at doses of 100 and 300 mg/kg, and vildagliptin (Trademax, China) at doses of 100 and 300 mg/kg, respectively, according to the designated groups. 1 hour after the final oral administration, animals were dissected and the excised liver was subjected to evaluation of TGF-β1 mRNA expression. The liver tissue stored in liquid nitrogen was homogenized in a TRIZOL solution and then the total RNAs were extracted. The isolated RNAs were diluted to a concentration of 1 μg/μL in 0.1(v/v) % DEPC (diethyl pyrocarbonate), and then the RNA mixture [2 μg/μL each RNA+2 μL of 0.5 μg/μL oligo d(T)15+up to 15 μL of 0.1% DEPC water] was incubated using a PCR apparatus at 72° C. for 5 minutes, followed by quenching on ice. The mixture [1 μL of PCR nucleotide mix+5 μL of 5×MMLV RT bf.(Promega, M531A)+1 μL of […] M-MLV reverse] was prepared, and then subjected to elongation at 42° C. for 60 minutes, denaturation at 95° C. for 5 minutes and quenching at 8° C. to synthesize cDNAs which were stored at −20° C. until subsequent use. In order to carry out RT-PCR, the mixture [1 μL of 20 pmol each Primer+9.5 μL of Nuclease-free water] was prepared and then 2 μL of each cDNA was placed in sterile PCR tubes to which 12.5 μL of remix Taq™ (RR003A, TaKaRa) was then added, followed by mixing. PCR was carried out under the following conditions (Table 4), using Thermal Cycler (PTC-200, MJ Research). PCT products were electrophoresed and analyzed using an Image Analyzer (Vilber Lourmat). Using β-actin expression, the expression of a target gene TGF-β1 was subjected to normalization (FIG. 11).

## glucagon-like peptide-1 [GLP-1]
[1]; 100 nM
  inhibitory effects on free fatty acid-induced fat accumulation: 28.0±4.9%

## CC#CCn1c(N2CCC[C@@H](N)C2)nc2c1c(=O)n(Cc1nc(C)c3ccccc3n1)c(=O)n2C [linagliptin]
[2]
  1 ng/mL TGFβ1-induced protein expression inhibition rate, TGFβ1: 64 ± 17.2%
  1 ng/mL TGFβ1-induced protein expression inhibition rate, α-SMA: 159 ± 17.5%
  protein expression levels of TGFβ1 and α-SMA, result in words: lowered

## N#C[C@@H]1CCCN1C(=O)CNC12CC3CC(CC(O)(C3)C1)C2 [vildagliptin]
[3]; 100 mg/kg oral once a day
  Triglyceride increase inhibition (%) relative to high fat diet-fed group: 24%
  Triglyceride increment (%) relative to standard diet-fed group: 38%
[3]; 300 mg/kg oral once a day
  Triglyceride increase inhibition (%) relative to high fat diet-fed group: 79%
  Triglyceride increment (%) relative to standard diet-fed group: 11%
[3]; HE staining, FIG. 8
  lipid droplets in liver tissue sample (histological evaluation), result in words: reduction of lipid droplets
[3]; maximum over the doses tested
  maximum decrement of the hepatic triglyceride content relative to the high fat diet-fed group: 79%
[4]; 100 mg/kg oral once a day
  TGF-β1 expression inhibition rate (% CCl4 control group): 92%
  TGF-β1 expression (normalized by actin): 1.02 ± 0.09
[4]; 300 mg/kg oral once a day
  TGF-β1 expression inhibition rate (% CCl4 control group): 115%
  TGF-β1 expression (normalized by actin): 0.96 ± 0.12
[4]; maximum over the doses tested
  maximum decrement in TGF-β1 mRNA expression of the liver relative to the CCl4 control group: 115%
[4]; vs CCl4 group
  expression of TGF-β1 mRNA of the liver, result in words: normalization
[2]
  1 ng/mL TGFβ1-induced protein expression inhibition rate, TGFβ1: 14 ± 32.8%
  1 ng/mL TGFβ1-induced protein expression inhibition rate, α-SMA: −56 ± 8.4%
  protein expression levels of TGFβ1 and α-SMA, result in words: lowered

## CN(C)C(=N)N=C(N)N [metformin]
[1]; Homo sapiens, HepG2, 1 mM, read-out: inhibitory effects on free fatty acid-induced fat accumulation
  inhibition at 1000 µM: 23.6 ± 5%
